Reference: patent publication US11427549B2, “Pyrimidinyloxy benzo-fused compounds as herbicides” (FMC Corporation, priority 2017, dated 2022)

Assays:
[1] = system: pigweed (Amaranthus retroflexus); assay: Test A postemergence, pigweed; assay type: in vivo; details: Amaranthus retroflexus, post-emergence, 240 h, 0 to 100 scale (0 no effect, 100 complete control), read-out: Plant response rating, Pigweed
[2] = system: barnyardgrass (Echinochloa crus-galli); assay: Test B flooded paddy test, barnyardgrass; details: Echinochloa crus-galli, read-out: Plant response rating, Barnyardgrass (0 to 100 scale, 0 is no effect, 100 is complete control)
[3] = system: ragweed (common ragweed, Ambrosia elatior); assay: Test A postemergence, ragweed; assay type: in vivo; details: Ambrosia artemisiifolia, post-emergence, 240 h, 0 to 100 scale (0 no effect, 100 complete control), read-out: Plant response rating, Ragweed
rice (Oryza sativa) = assay: Test B flooded paddy test, rice; details: Oryza sativa, read-out: Plant response rating, Rice (0 to 100 scale, 0 is no effect, 100 is complete control)
[4] = system: blackgrass (Alopecurus myosuroides); assay: Test A postemergence, blackgrass; assay type: in vivo; details: Alopecurus myosuroides, post-emergence, 240 h, 0 to 100 scale (0 no effect, 100 complete control), read-out: Plant response rating, Blackgrass
[5] = system: barnyardgrass (Echinochloa crus-galli); assay: Test A postemergence, barnyardgrass; assay type: in vivo; details: Echinochloa crus-galli, post-emergence, 240 h, 0 to 100 scale (0 no effect, 100 complete control), read-out: Plant response rating, Barnyardgrass
[6] = system: ragweed (common ragweed, Ambrosia elatior); assay: Test A preemergence, ragweed; assay type: in vivo; details: Ambrosia artemisiifolia, pre-emergence, 240 h, 0 to 100 scale (0 no effect, 100 complete control), read-out: Plant response rating, Ragweed
[7] = system: ducksalad (Heteranthera limosa); assay: Test B flooded paddy test, ducksalad; details: Heteranthera limosa, read-out: Plant response rating, Ducksalad (0 to 100 scale, 0 is no effect, 100 is complete control)
[8] = system: galium (catchweed bedstraw, Galium aparine); assay: Test A postemergence, galium; assay type: in vivo; details: Galium, post-emergence, 240 h, 0 to 100 scale (0 no effect, 100 complete control), read-out: Plant response rating, Galium
kochia (Kochia scoparia) [9] = assay: Test A preemergence, kochia; assay type: in vivo; details: Bassia scoparia, pre-emergence, 240 h, 0 to 100 scale (0 no effect, 100 complete control), read-out: Plant response rating, Kochia
[10] = system: foxtail, green (green foxtail, Setaria viridis); assay: Test A preemergence, foxtail, green; assay type: in vivo; details: Setaria, pre-emergence, 240 h, 0 to 100 scale (0 no effect, 100 complete control), read-out: Plant response rating, Foxtail, Green
Description: Seeds of plant species selected from barnyardgrass (Echinochloa crus-galli), kochia (Kochia scoparia), ragweed (common ragweed, Ambrosia elatior), ryegrass, Italian (Italian ryegrass, Lolium multiflorum), foxtail, giant (giant foxtail, Setaria faberii), foxtail, green (green foxtail, Setaria viridis) and pigweed (Amaranthus retroflexus) were planted into a blend of loam soil and sand and treated preemergence with a directed soil spray using test chemicals formulated in a non-phytotoxic solvent mixture which included a surfactant.
At the same time, plants selected from these weed species and also wheat (Triticum aestivum), corn (Zea mays), blackgrass (Alopecurus myosuroides), and galium (catchweed bedstraw, Galium aparine) were planted in pots containing the same blend of loam soil and sand and treated with postemergence applications of test chemicals formulated in the same manner. Plants ranged in height from 2 to 10 cm and were in the one- to two-leaf stage for the postemergence treatment. Treated plants and untreated controls were maintained in a greenhouse for approximately 10 days, after which time all treated plants were compared to untreated controls and visually evaluated for injury. […] A dash (-) response means no test result.

[11] = system: pigweed (Amaranthus retroflexus); assay: Test A preemergence, pigweed; assay type: in vivo; details: Amaranthus retroflexus, pre-emergence, 240 h, 0 to 100 scale (0 no effect, 100 complete control), read-out: Plant response rating, Pigweed
[12] = system: ryegrass, Italian (Italian ryegrass, Lolium multiflorum); assay: Test A preemergence, ryegrass, Italian; assay type: in vivo; details: Lolium multiflorum, pre-emergence, 240 h, 0 to 100 scale (0 no effect, 100 complete control), read-out: Plant response rating, Ryegrass, Italian
kochia (Kochia scoparia) [13] = assay: Test A postemergence, kochia; assay type: in vivo; details: Bassia scoparia, post-emergence, 240 h, 0 to 100 scale (0 no effect, 100 complete control), read-out: Plant response rating, Kochia
[14] = system: barnyardgrass (Echinochloa crus-galli); assay: Test A preemergence, barnyardgrass; assay type: in vivo; details: Echinochloa crus-galli, pre-emergence, 240 h, 0 to 100 scale (0 no effect, 100 complete control), read-out: Plant response rating, Barnyardgrass
corn (Zea mays) = assay: Test A postemergence, corn; assay type: in vivo; details: Zea mays, post-emergence, 240 h, 0 to 100 scale (0 no effect, 100 complete control)
[15] = system: wheat (Triticum aestivum); assay: Test A postemergence, wheat; assay type: in vivo; details: Triticum aestivum, post-emergence, 240 h, 0 to 100 scale (0 no effect, 100 complete control), read-out: Plant response rating, Wheat
[16] = system: ryegrass, Italian (Italian ryegrass, Lolium multiflorum); assay: Test A postemergence, ryegrass, Italian; assay type: in vivo; details: Lolium multiflorum, post-emergence, 240 h, 0 to 100 scale (0 no effect, 100 complete control), read-out: Plant response rating, Ryegrass, Italian

O=C1OC(CCCC(F)(F)F)c2c(Oc3ncc(Cl)cn3)cccc21 (stereo not drawn) [Compound 1, 4-[(5-Chloro-2-pyrimidinyl)oxy]-3-(4,4,4-trifluorobutyl)-1(3H)-isobenzofuranone]
pest or weed control at 125 g/ha ([1]; 125 g ai/ha): 100%
pest or weed control at 500 g/ha ([1]; 500 g ai/ha): 100%
pest or weed control at 250 g/ha [2]: 0%
pest or weed control at 125 g/ha ([3]; 125 g ai/ha): 10%
pest or weed control at 500 g/ha ([3]; 500 g ai/ha): 40%
plant injury at 250 g/ha (rice (Oryza sativa)): 0%
pest or weed control at 125 g/ha ([4]; 125 g ai/ha): 40%
pest or weed control at 500 g/ha ([4]; 500 g ai/ha): 100%
pest or weed control at 125 g/ha ([5]; 125 g ai/ha): 70%
pest or weed control at 500 g/ha ([5]; 500 g ai/ha): 80%
pest or weed control at 125 g/ha ([6]; 125 g ai/ha): 80%
pest or weed control at 500 g/ha ([6]; 500 g ai/ha): 90%
pest or weed control at 250 g/ha [7]: 20%
pest or weed control at 125 g/ha ([8]; 125 g ai/ha): 100%
pest or weed control at 500 g/ha ([8]; 500 g ai/ha): 100%
pest or weed control at 125 g/ha (kochia (Kochia scoparia) [9]; 125 g ai/ha): 100%
pest or weed control at 500 g/ha (kochia (Kochia scoparia) [9]; 500 g ai/ha): 100%
pest or weed control at 125 g/ha ([10]; 125 g ai/ha): 100%
pest or weed control at 500 g/ha ([10]; 500 g ai/ha): 100%
pest or weed control at 125 g/ha ([11]; 125 g ai/ha): 100%
pest or weed control at 500 g/ha ([11]; 500 g ai/ha): 100%
pest or weed control at 125 g/ha ([12]; 125 g ai/ha): 80%
pest or weed control at 500 g/ha ([12]; 500 g ai/ha): 100%
pest or weed control at 125 g/ha (kochia (Kochia scoparia) [13]; 125 g ai/ha): 100%
pest or weed control at 500 g/ha (kochia (Kochia scoparia) [13]; 500 g ai/ha): 100%
pest or weed control at 125 g/ha ([14]; 125 g ai/ha): 100%
pest or weed control at 500 g/ha ([14]; 500 g ai/ha): 100%
Corn plant response rating (crop injury, 0 = no effect, 100 = complete kill) at 125 g/ha (corn (Zea mays); 125 g ai/ha): 40%
Corn plant response rating (crop injury, 0 = no effect, 100 = complete kill) at 500 g/ha (corn (Zea mays); 500 g ai/ha): 60%
plant injury at 125 g/ha ([15]; 125 g ai/ha): 30%
plant injury at 500 g/ha ([15]; 500 g ai/ha): 80%
pest or weed control at 125 g/ha ([16]; 125 g ai/ha): 50%
pest or weed control at 500 g/ha ([16]; 500 g ai/ha): 80%
